# Where a SMILES comes first, the peptide text is derived from it. Where no end group is shown, it is not given here. [ ]: non-standard residue; d: D form. Nva = CCC[C@H](N)C(=O)O
# T1: AdipoR1-Δ88 (Homo sapiens, UniProt Q96A54)
# T1 construct: made in house; host or cells: Sf9 insect cells (Bac-to-Bac baculovirus)
# T1 sequence (Q96A54 89-375 limits assumed): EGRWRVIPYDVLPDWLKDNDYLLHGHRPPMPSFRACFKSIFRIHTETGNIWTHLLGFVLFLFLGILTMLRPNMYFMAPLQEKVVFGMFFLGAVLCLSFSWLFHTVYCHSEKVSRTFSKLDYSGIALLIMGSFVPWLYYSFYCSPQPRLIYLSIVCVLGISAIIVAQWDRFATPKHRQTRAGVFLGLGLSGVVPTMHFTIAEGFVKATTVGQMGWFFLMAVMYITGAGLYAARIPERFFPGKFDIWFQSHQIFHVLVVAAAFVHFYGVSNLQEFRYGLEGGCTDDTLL
# T2: AdipoR1-Δ88 (adiponectin receptor 1 lacking the N-terminal 88 residues) (human, UniProt Q96A54 89-375)
# T2 construct: Adiponectin receptor 1 (AdipoR1), human; N-terminal 88 residues deleted; gene synthesised, codon-optimised for insect cells; Kept in 0.025% DDM and 0.0001% CHS; The functional rows were done on mouse C2C12 or human HepG2 cells with their own AdipoR1; m1 stands there for AdipoR1; also called AdipR1-Δ88; source: SF9 cells (Bac-to-Bac baculovirus), solubilised with 1% DDM, purified (anti-flag …)
# T2 sequence (looked up): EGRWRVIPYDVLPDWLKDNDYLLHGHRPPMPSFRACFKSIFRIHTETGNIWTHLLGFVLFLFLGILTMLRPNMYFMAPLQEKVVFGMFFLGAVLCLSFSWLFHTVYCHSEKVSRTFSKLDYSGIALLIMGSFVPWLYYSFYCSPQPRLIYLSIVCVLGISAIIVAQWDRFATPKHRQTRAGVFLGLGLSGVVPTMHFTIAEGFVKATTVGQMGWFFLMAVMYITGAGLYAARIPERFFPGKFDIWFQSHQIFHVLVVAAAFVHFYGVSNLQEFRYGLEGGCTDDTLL
# Key:
# AdipoR1-Δ88 = target: T1, AdipoR1-Δ88; test: Surface plasmon resonance binding to immobilized AdipoR1-Δ88; conditions: for SPR screening of designed peptides, selection: Biacore T-200, selected versus ADP355 by concentration-dependent signal increase, dissociation rate and estimated Kd, 25 candidate peptides
# Protocol: DNA gene fragment encoding AdipoR1 fused to an N-terminal flag tag was synthesized after codon optimization for insect cell expression (Integrated DNA Technologies). Full length AdipoR1 and AdipoR1-Δ88 were expressed in SF9 cell line using Bac-to-Bac Baculovirus system and purified following the procedure described by T. Tanabe et. al.. Briefly, 1 L SF9 cells infected with amplified baculovirus were cultured in SF-900 III SFM media (Thermo Fisher Scientific) for 3 days at 27°C. Harvested cells were disrupted by dounce homogenization, followed by centrifugation at 30,000 rpm for 2 hours. Collected raw membrane were washed with HEPES buffer and stored in -80°C after flash-freezing. Membranes were solubilized with 1% DDM (Anatrace) and recombinant AdipoR1-Δ88 was purified by using anti-flag tag antibody magnetic beads (Sigma). Eluted AdipoR1-Δ88 by flag peptide (Sigma) was further purified in 20 mM HEPES (pH7.4), 150 mM NaCl, 10% glycerol, 0.025% DDM, and 0.0001% CHS by Superdex 200 (GE Healthcare). The amount of purified AdipoR1-Δ88 was estimated by using Bradford staining.
# In order to screen peptide library against AdipoR1, purified AdipoR1-Δ88 was immobilized onto S-series CM5 chip (GE Healthcare Life Science). Since AdipoR1-Δ88 was solubilized with a detergent-containing buffer solution, pH scouting solutions with various pH from 3.5 to 5.5 were prepared with the same detergent solution, 0.025% DDM and 0.0001% cholesteryl-hemi-succinate (CHS, Anatrace). At pH 5, AdipoR1-Δ88 was immobilized at around 4000 response unit using amine coupling method though EDC/NHS. After enough stabilization with running buffer consisting of 20 mM HEPES (pH7.4), 150 mM NaCl, 10% glycerol, 0.025% DDM, and 0.0001% CHS, serial concentrations from 1 to 100 μM were injected into reference and sample cells with 60-second contact time, 200-second dissociation time, and 30 μl/min flow rate at 4°C. The resulting sensorgrams were double-blanked by reference cell and buffer injection.
# AdipoRs = conditions: previous studies; cited from earlier work
# [1] = system: AdipoR1-mediated AMPK activation (pAMPK Thr172) in differentiated C2C12 myotubes; test: AMPK activation in differentiated C2C12 myotubes (Western blot); type: cell-based, Mouse; conditions: differentiated C2C12 myotubes, 0.8, 4 and 20 μM, in words
# Protocol: (§1) Mouse C2C12 myoblasts (American Type Culture Collection) were maintained in Dulbecco’s modified Eagle’s medium (DMEM) supplemented with 10% FBS. C2C12 myotube was obtained by culturing myoblasts in DMEM containing 2% horse serum for at least 5 days with daily media change. On the fifth day, differentiation of cells could be confirmed by multinucleated contracted myotubes. C2C12 myotubes were then treated with selected peptide candidates at indicated concentrations for 30 minutes. As a positive control, 2 μg/ml recombinant human globular adiponectin and indicated concentrations of ADP355 were used.
# (§2) Cell lysates were subjected to SDS-PAGE and western blot analysis. Briefly, cells were lysed with protein lysis buffer (RIPA, Thermo) followed by heat denaturation. Five micrograms of whole cell proteins were applied to SDS-PAGE. After electrophoresis, the proteins were transferred onto PVDF membrane, followed by membrane blocking in TBS-T buffer containing 5% non-fat dry milk for 1 hour at room temperature. The membrane was probed with the following different primary antibodies: anti-phosphorylated-AMPK (Thr172) (Cell Signaling), anti-tAMPK (Cell Signaling), anti-pACC, and anti-GAPDH (Santa-Cruz). […] Signals from Western blot were quantified by using Image Lab Software 6.0 (Bio-Rad).
# Solubility of peptides = type: physicochemical
# [2] = system: acetyl Co-A carboxylase (ACC) phosphorylation in differentiated C2C12 myotubes; test: ACC phosphorylation in differentiated C2C12 myotubes (Western blot); type: cell-based, Mouse; conditions: PEGylated BHD1028, Western blot, in words
# Protocol: as §1, §2
# [3] = target: T2, AdipoR1-Δ88 (adiponectin receptor 1 …); test: SPR; AdipoR1-Δ88 immobilised on CM5 chip by amine coupling at pH 5 (around 4000 RU); peptides 1 to 100 μM injected, 60 s contact, 200 s dissociation, 30 μl/min, 4°C; 20 mM HEPES pH 7.4, 150 mM NaCl, 10% glycerol, 0.025% DDM, 0.0001% CHS; Kd from saturation curves of responses at equilibrium; conditions: both partners purified
molecule,measurement,setting,value
"CCC[C@H](NC(=O)[C@@H]1CCCN1C(=O)[C@@H](NC(=O)[C@H](N)CC(N)=O)[C@@H](C)CC)C(=O)N[C@@H](CC(C)C)C(=O)N[C@@H](Cc1ccc(O)cc1)C(=O)N[C@H](CO)C(=O)N[C@@H](Cc1ccccc1)C(=O)N[C@@H](C)C(=O)N[C@H](CO)C(N)=O [ADP355, reference compound] (H-[dN]IP[Nva]LY[dS]FA[dS]-NH2)",Kd,"AdipoR1-Δ88; SPR, AdipoR1-Δ88 amine-coupled on CM5 chip, 1 to 100 μM peptide, 4°C, 20 mM HEPES pH7.4, 0.025% DDM, 0.0001% CHS, from saturation curves with responses at equilibrium state",> 100 µM
same,SPR response,"AdipoR1-Δ88; SPR, AdipoR1-Δ88 on CM5 chip, serial concentrations 1 to 100 μM, in words",very weak SPR responses except 100 μM concentration
same,cellular efficacy,AdipoRs,nano molar concentration
CC[C@H](C)[C@H](NC(=O)[C@H](CC(N)=O)NC(=O)[C@@H]1CCCN1C(=O)[C@H](Cc1c[nH]cn1)NC(=O)[C@H](Cc1ccc(O)cc1)NC(=O)[C@H](C)NC(=O)[C@H](Cc1ccccc1)NC(=O)[C@H](Cc1ccc(O)cc1)NC(=O)[C@@H](N)Cc1c[nH]c2ccccc12)C(=O)N1CCC[C@H]1C(=O)NCC(=O)N[C@@H](CC(C)C)C(=O)N[C@@H](Cc1c[nH]c2ccccc12)C(=O)N[C@@H](Cc1ccc(O)cc1)C(=O)N[C@@H](Cc1ccccc1)C(=O)O [BHD43] (H-WYFAYHPNIPGLWYF-OH),"SPR screening of designed peptides, selection",AdipoR1-Δ88,preliminarily selected
same,AMPK activation,[1],activated AMPK in a concentration-dependent manner
CC[C@H](C)[C@H](NC(=O)[C@H](CC(N)=O)NC(=O)[C@@H]1CCCN1C(=O)[C@H](Cc1c[nH]cn1)NC(=O)[C@H](Cc1ccc(O)cc1)NC(=O)[C@H](C)NC(=O)[C@H](Cc1ccccc1)NC(=O)[C@H](Cc1ccc(O)cc1)NC(=O)[C@@H](N)Cc1ccccc1)C(=O)N1CCC[C@H]1C(=O)NCC(=O)N[C@@H](CC(C)C)C(=O)N[C@@H](Cc1ccccc1)C(=O)N[C@@H](Cc1ccc(O)cc1)C(=O)N[C@@H](Cc1ccccc1)C(=O)O [BHD44] (H-FYFAYHPNIPGLFYF-OH),"SPR screening of designed peptides, selection",AdipoR1-Δ88,preliminarily selected
same,AMPK activation,[1],activated AMPK in a concentration-dependent manner
CC[C@H](C)[C@H](NC(=O)[C@H](CC(N)=O)NC(=O)[C@@H]1CCCN1C(=O)[C@H](Cc1c[nH]cn1)NC(=O)[C@H](Cc1ccc(O)cc1)NC(=O)[C@H](C)NC(=O)[C@H](Cc1ccccc1)NC(=O)[C@H](Cc1ccc(O)cc1)NC(=O)[C@@H](N)Cc1ccc(O)cc1)C(=O)N1CCC[C@H]1C(=O)NCC(=O)N[C@@H](CC(C)C)C(=O)N[C@@H](Cc1ccc(O)cc1)C(=O)N[C@@H](Cc1ccc(O)cc1)C(=O)N[C@@H](Cc1ccccc1)C(=O)O [BHD1028] (H-YYFAYHPNIPGLYYF-OH),"SPR screening of designed peptides, selection",AdipoR1-Δ88,preliminarily selected
same,dissociation in the SPR sensorgram,"AdipoR1-Δ88; among screened peptides, in words",slowest dissociation
same,solubility in DMSO,Solubility of peptides; DMSO,100 mM
same,solubility,"Solubility of peptides; aqueous buffer, PBS buffer pH 7.4, unmodified peptide",≤ 0.05 mM
PEGylated BHD1028: BHD1028 N-terminally mono-PEGylated with 5000 Da polyethylene glycol ({PEG 5000 Da}-YYFAYHPNIPGLYYF),"ACC activation, concentration dependence",[2],concentration dependent
same,solubility after PEGylation,"Solubility of peptides; modified with 5000 Da of PEG, in words",much enhanced solubility
"YYFAYHPNIPGLYYF (designed 15-mer, adiponectin-mimetic; free N- and C-termini as printed (NH2-...-COOH); also called BHD31; source: synthetic peptide (AnyGen Ltd.)) [BHD1028]",Kd,[3],16 µM
"WYFAYHPNIPGLWYF (designed 15-mer, adiponectin-mimetic; free N- and C-termini as printed (NH2-...-COOH); source: synthetic peptide (AnyGen Ltd.)) [BHD43]",Kd,[3],10 µM
"FYFAYHPNIPGLFYF (designed 15-mer, adiponectin-mimetic; free N- and C-termini as printed (NH2-...-COOH); source: synthetic peptide (AnyGen Ltd.)) [BHD44]",Kd,[3],4.3 µM

# — PMC6005460, “Discovery of a novel potent peptide agonist to adiponectin receptor 1” (PLoS ONE, 2018)
